pIC50: −log10 of the molar value. Calls of active or inactive are those of the source. No cut-off for these calls is given here.
Columns and labels:
C6 [1] = assay: Antiproliferative activity against rat C6 cells assessed as reduction in cell number at 10 to 20 uM by DAPI staining-based confocal microscopic analysis; type: functional
C6 [2] = assay: Induction of senescence in rat C6 cells assessed as upregulation of HSP70 expression at 10 ug/ml by DAPI staining-based confocal microscopic analysis; type: functional, cell-based
C6 [3] = assay: Cell cycle arrest in rat C6 cells assessed as accumulation at G0/G1 phase at 10 uM after 36 hrs by propidium iodide staining-based flow cytometric analysis; type: functional
C6 [4] = assay: Antiproliferative activity against rat C6 cells assessed as appearance of differentiated morphology with long stellate process at 20 uM by alpha-tubulin immunostaining-based phase contrast microscopic analysis; type: functional, cell-based
C6 [5] = assay: Cell cycle arrest in rat C6 cells assessed as decrease in cell number in S phase at 10 uM after 36 hrs by propidium iodide staining-based flow cytometric analysis relative to control; type: functional
C6 [6] = assay: Antiproliferative activity against rat C6 cells assessed as appearance of small cell body at 10 to 20 uM by DAPI staining-based confocal microscopic analysis; type: functional
C6 [7] = assay: Induction of senescence in rat C6 cells assessed as upregulation of mortalin expression in nucleus by DAPI staining-based confocal microscopic analysis; type: functional, cell-based
C6 [8] = assay: Antiproliferative activity against rat C6 cells assessed as appearance of small cell body at 20 uM by alpha-tubulin immunostaining-based phase contrast microscopic analysis; type: functional
C6 [9] = assay: Induction of senescence in rat C6 cells assessed as translocation of mortalin from perinuclear region to pancytoplasmic region by DAPI staining-based confocal microscopic analysis; type: functional, cell-based
C6 [10] = assay: Cell cycle arrest in rat C6 cells assessed as accumulation at G0/G1 phase at 10 uM after 36 hrs by propidium iodide staining-based flow cytometric analysis relative to control; type: functional
C6 [11] = assay: Cell cycle arrest in rat C6 cells assessed as decrease in cell number in G2/M phase at 10 uM after 36 hrs by propidium iodide staining-based flow cytometric analysis relative to control; type: functional
C6 [12] = assay: Antiproliferative activity against rat C6 cells after 72 hrs by MTT assay; type: functional, cell-based; settings: C6, 72 h
C6 [13] = assay: Antiproliferative activity against rat C6 cells assessed as reduction in cell number at 20 uM by alpha-tubulin immunostaining-based phase contrast microscopic analysis; type: functional
C6 [14] = assay: Antiproliferative activity against rat C6 cells assessed as appearance of differentiated morphology with long stellate process at 10 to 20 uM by DAPI staining-based confocal microscopic analysis; type: functional, cell-based
C6 [15] = assay: Antiproliferative activity against rat C6 cells at 10 uM by phase contrast microscopic analysis relative to control; type: functional, cell-based
C6 [16] = assay: Downregulation of GFAP expression in rat C6 cells by DAPI staining-based confocal microscopic analysis; type: functional, cell-based

In the case of `O=C(O)CNC(=O)[C@@H]1CCCN1C(=O)[C@H](Cc1ccc(O)cc1)NC(=O)c1cccc2c(=O)c3ccccc3[nH]c12`, the Activity (C6 [1]) was “Active”, the Activity (C6 [2]) was “Active” and the Activity (C6 [3]) was “Active”. The Activity (C6 [4]) was “Active”, the Activity (C6 [5]) was “Active” and the Activity (C6 [6]) was “Active”. For the same compound, the Activity (C6 [7]) was “Active”, the Activity (C6 [8]) was “Active” and the Activity (C6 [9]) was “Active”. The Activity (C6 [10]) was “Active”, the Activity (C6 [11]) was “Active” and the pIC50 (C6 [12]) was 4.85. For the same compound, the Activity (C6 [13]) was “Active”, the Activity (C6 [14]) was “Active” and the Activity (C6 [15]) was “Active”. For the same compound, the Activity (C6 [16]) was “Active”.

With `COC(=O)CNC(=O)[C@H](Cc1ccc(O)cc1)NC(=O)c1cccc2c(=O)c3ccccc3[nH]c12` the Activity (C6 [1]) was “Active”, the Activity (C6 [2]) was “Active” and the Activity (C6 [3]) was “Active”. For the same compound, the Activity (C6 [4]) was “Active”, the Activity (C6 [5]) was “Active” and the Activity (C6 [6]) was “Active”. For the same compound, the Activity (C6 [7]) was “Active”, the Activity (C6 [8]) was “Active” and the Activity (C6 [9]) was “Active”. The Activity (C6 [10]) was “Active”, the Activity (C6 [11]) was “Active” and the pIC50 (C6 [12]) was 4.85. For the same compound, the Activity (C6 [13]) was “Active”, the Activity (C6 [14]) was “Active” and the Activity (C6 [15]) was “Active”. The Activity (C6 [16]) was “Active”.

`O=C(N[C@@H](Cc1ccc(O)cc1)C(=O)O)c1cccc2c(=O)c3ccccc3[nH]c12` was tested, and the Activity (C6 [3]) was “Active” and the pIC50 (C6 [12]) was 4.85.

With `COC(=O)[C@H](Cc1ccc(O)cc1)NC(=O)c1cccc2c(=O)c3ccccc3[nH]c12` the Activity (C6 [3]) was “Active” and the pIC50 (C6 [12]) was 4.85.

In the case of `O=C(N[C@@H](Cc1ccc(O)cc1)C(=O)NCC(=O)N1CCC[C@H]1C(=O)O)c1cccc2c(=O)c3ccccc3[nH]c12`, the Activity (C6 [1]) was “Active”, the Activity (C6 [2]) was “Active” and the Activity (C6 [3]) was “Active”. The Activity (C6 [4]) was “Active”, the Activity (C6 [5]) was “Active” and the Activity (C6 [6]) was “Active”. For the same compound, the Activity (C6 [7]) was “Active”, the Activity (C6 [8]) was “Active” and the Activity (C6 [9]) was “Active”. The Activity (C6 [10]) was “Active”, the Activity (C6 [11]) was “Active” and the pIC50 (C6 [12]) was 4.85. For the same compound, the Activity (C6 [13]) was “Active”, the Activity (C6 [14]) was “Active” and the Activity (C6 [15]) was “Active”. For the same compound, the Activity (C6 [16]) was “Active”.

`COC(=O)[C@@H](NC(=O)c1cccc2c(=O)c3ccccc3[nH]c12)C(C)C` was tested, and the Activity (C6 [3]) was “Active” and the pIC50 (C6 [12]) was 4.85.
